Tests used:
[1] = test system: human monocyte-derived iDC; test: Uptake of fluorescent polymer by iDCs, confocal microscopy; format: cell-based; details: two minutes incubation at 37° C.; labeled Compound 15 50 μg/ml, FITC-dextran 1 mg/ml
Description: Oregon-green labeled Compound 15 is prepared as described in PCT International Publication WO 01/79242. Briefly, Oregon-green (Molecular Probes, Eugene, Oreg.)-conjugated Lipid II is included in an MtgA-polymerization reaction at a ratio of 1:4 with unlabeled Lipid 11 to produce a 25% Oregon-green labeled polymer. The polymeric material is purified and treated as previously described. For uptake studies, fluorescent Compound 15 at a final concentration of 50 μg/ml, or Lysine-fixable FITC-conjugated dextran (40 kDa size, Molecular Probes, Eugene, Oreg.) at 1 mg/ml, is incubated with human monocyte-derived iDC prepared as described in Example 5 for two minutes at 37° C. After incubation, extracellular probe is removed by washing the cells four times in ice cold complete DC medium (Example 5). Washed cells are then incubated at 37° C. and staining is stopped at two-minute intervals by washing in 1% paraformaldehyde fix diluted in flow wash solution (which also contains the metabolic poison sodium azide; protocol described in Example 5). Glass slide samples are prepared at each time interval and sealed with clear nail polish. Samples are stored at −20° C. and protected from light until analysis on a Radiance 2100 confocal microscope (BioRad Laboratories, Hercules, Calif.).

[2] = test system: human monocyte-derived dendritic cells; test: Kinetics of fluorescent polymer uptake by iDCs, flow cytometry; format: cell-based; details: labeled Compound 15 50 μg/ml, FITC-dextran 1 mg/ml
Description: In these experiments, human monocyte-derived dendritic cells are prepared as described in Example 5. Dendritic cells are resuspended at 5×10^5 cells/sample and incubated […] at 37° C. At the start of each time course, cells are incubated with either fluorescent Compound 15 at a final concentration of 50 μg/ml or Lysine-fixable FITC-conjugated dextran (40 kDa size, Molecular Probes, Eugene, Oreg.) at 1 mg/ml. At 0, 2, 10, 20, 30, 40, and 50 minutes after the start of incubation, uptake is stopped by washing the cells with four washes of ice cold flow wash buffer (Example 5). The washed cells are fixed in paraformaldehyde also as described in Example 5. Stained, fixed cells are stored at 4° C. protected from light until analysis using a FC500 flow cytometer (Beckman Coulter, Miami, Fla.). Once cells are correctly gated for forward and side scatter profiles, mean fluorescent intensity of the population is evaluated for 10,000 cells/sample. […] To control for non-specific adhesion of the molecules to the cell surface (which could be read as a positive in this assay), cells are also incubated with fluorescent polymers at 0° C. […] At this temperature, signal from neither the control molecule (FITC-dextran) nor Compound 15 increases over time (FIG. 5).

For FITC-Dextran, the “Intracellular localization of polymer in iDCs (confocal images)” value [1] was “Localization of polymer in endocytic vacuoles” and the “Uptake by DC at 0° C. (cells metabolically inactive)” value [2] was “inhibited”.

Source: US7629313B2, “Immunomodulatory polymeric antigens for treating inflammatory pathologies” (Eli Lilly and Company, priority 2003, dated 2009)
